Values quoted from earlier work in patent publication US6689909B1, “Substituted N-phenyl 2-hydroxy-2-methyl-3,3,3-trifluoropropanamide derivatives which elevate pyruvate dehydrogenase activity” (AstraZeneca AB, priority 1999, dated 2004).

Columns and labels:
[1] = system: PDH; settings: single administration, 150 mg/kg, intraperitoneally
[2] = after repeated administration

In the case of `O=C(O)C(Cl)Cl` [DCA, dichloroacetic acid], the “proportion of PDH in its active form” value [1] is listed as “increased the proportion of PDH in its active form” and the plasma glucose [2] is listed as “significant decrease in plasma glucose”.
